Measured values: patent US20210047324A1 (Aptinyx Inc., priority 2018, published 2021)
Where “and” joins values, the source holds several entries; their conditions need not be identical. Identical values can stand only once.

Experiments:
[1] = Oral pharmacokinetics in Sprague Dawley rats (plasma, brain, CSF); assay type: in vivo; conditions: rat, 10 mg/kg
Experimental: In another experiment, Sprague Dawley rats were dosed per os (oral gavage) using a normal saline formulation containing 10 mg/kg of the compounds identified in the table below. Plasma, brain, and CSF samples were analyzed at various time points over a 24 hour period. The table below summarizes the results of the oral pharmacokinetics, where the first three values (Tmax, Cmax and AUClast) are plasma values.

NMDAR2A = target: T1, NMDAR2A (Homo sapiens, UniProt Q12879); experiment: NMDAR agonist assay, [3H]MK-801 binding, NMDAR2A expressing HEK cell membranes; assay type: biochemical; set-up: key to NMDAR2A B: log EC50: 0=−; ≥1×10^−9 M (e.g., −8)=+; <1×10^−9 M (e.g., −10)=++; conditions: 50 μM glutamate; for EC50: read-out: NMDAR2A B: log EC50 (converted); for Emax: 0.25 h, read-out: NMDAR2A A: % maximal [3H]MK-801 binding relative to 1 mM glycine; for NMDAR2A A: % maximal [3H]MK-801 binding relative to 1 mM glycine / Emax: relative to 1 mM glycine
T1 construct: expressed in transfected cells; host or cells: HEK cells (membrane extract)
Experimental: (§1) Assays were conducted as described by Moskal et al., “GLYX-13: a monoclonal antibody-derived peptide that acts as an N-methyl-D-aspartate receptor modulator,” Neuropharmacology, 49, 1077-87, 2005. These studies were designed to determine if the test compounds act to facilitate NMDAR activation in NMDAR2A, NMDAR2B, NMDAR2C or NMDAR2D expressing HEK cell membranes as measured by increases in [^3H]MK-801 binding.
(§2) In the assay, 300 μg of NMDAR expressing HEK cell membrane extract protein was preincubated for 15 minutes at […] in the presence of saturating concentrations of glutamate (50 μM) and varying concentrations of test compound (1×10^−15M-1×10^−7M), or 1 mM glycine. Following the addition of 0.3 μCi of [3H]MK-801 (22.5 Ci/mmol), reactions were again incubated for 15 minutes at 25° C. (nonequilibrium conditions). Bound and free [3H]MK-801 were separated via rapid filtration using a Brandel apparatus.
(§3) In analyzing the data, the DPM (disintegrations per minute) of [3H]MK-801 remaining on the filter were measured for each concentration of test compound or for 1 mM glycine. The DPM values for each concentration of a ligand (N=2) were averaged. The baseline value was determined from the best fit curve of the DPM values modeled using the GraphPad program and the log(agonist) vs. response (three parameters) algorithm was then subtracted from all points in the dataset. The % maximal [^3H]MK-801 binding was then calculated relative to that of 1 mM glycine: all baseline subtracted DPM values were divided by the average value for 1 mM glycine. The EC50 and % maximal activity were then obtained from the best fit curve of the % maximal [3H]MK-801 binding data modelled using the GraphPad program and the log(agonist) vs. response (three parameters) algorithm.
(§4) The tables below summarize the results for the wild type […] NMDAR2A, NMDAR2B, NMDAR2C, and NMDAR2D, and whether the compound is not an agonist (−), is an agonist (+), or is a strong agonist (++), where column A is based on the % maximal [3H]MK-801 binding relative to 1 mM glycine (−=0; <100%=+; and >100%=++); and column B is based on log EC50 values (0=−; ≥1×10^−9 M (e.g., −8)=+; and <1×10^−9 M (e.g., −10)=++).

[2] = Microsomal stability (Rat); assay type: in vitro ADME; conditions: after 60 minutes
Experimental: (§5) Microsomal stability of disclosed compounds was investigated. The following table indicates the percent of compound remaining after 60 minutes.

[3] = Microsomal stability (Human); assay type: in vitro ADME; conditions: after 60 minutes
Experimental: as §5

Plasma stability (Rat) = assay type: in vitro ADME; conditions: after 60 minutes
Experimental: (§6) Plasma stability of disclosed compounds was investigated. The following table indicates the percent of compound remaining after 60 minutes.

[4] = IV pharmacokinetics in Sprague Dawley rats; assay type: in vivo; conditions: Sprague-Dawley, rat, in vivo, iv, 2 mg/kg, normal saline
Experimental: Sprague Dawley rats were dosed intravenously using a normal saline formulation containing 2 mg/kg of the compounds identified in the below table. The table below summarizes the results of the IV pharmacokinetics.

NMDAR2B = target: T2, NMDAR2B (Homo sapiens, UniProt Q13224); experiment: NMDAR agonist assay, [3H]MK-801 binding, NMDAR2B expressing HEK cell membranes; assay type: biochemical; conditions: 50 μM glutamate; for EC50: read-out: NMDAR2B B: log EC50 (converted); for NMDAR2B A: % maximal [3H]MK-801 binding relative to 1 mM glycine / Emax: relative to 1 mM glycine; for Emax: read-out: NMDAR2B A: % maximal [3H]MK-801 binding relative to 1 mM glycine
T2 construct: expressed in transfected cells; host or cells: HEK cells (membrane extract)
Experimental: as §1, §2, §3, §4

Plasma stability (Human) = assay type: in vitro ADME; conditions: after 60 minutes
Experimental: as §6

T2 sequence (Q13224 27-1484, species assumed, other chains not shown): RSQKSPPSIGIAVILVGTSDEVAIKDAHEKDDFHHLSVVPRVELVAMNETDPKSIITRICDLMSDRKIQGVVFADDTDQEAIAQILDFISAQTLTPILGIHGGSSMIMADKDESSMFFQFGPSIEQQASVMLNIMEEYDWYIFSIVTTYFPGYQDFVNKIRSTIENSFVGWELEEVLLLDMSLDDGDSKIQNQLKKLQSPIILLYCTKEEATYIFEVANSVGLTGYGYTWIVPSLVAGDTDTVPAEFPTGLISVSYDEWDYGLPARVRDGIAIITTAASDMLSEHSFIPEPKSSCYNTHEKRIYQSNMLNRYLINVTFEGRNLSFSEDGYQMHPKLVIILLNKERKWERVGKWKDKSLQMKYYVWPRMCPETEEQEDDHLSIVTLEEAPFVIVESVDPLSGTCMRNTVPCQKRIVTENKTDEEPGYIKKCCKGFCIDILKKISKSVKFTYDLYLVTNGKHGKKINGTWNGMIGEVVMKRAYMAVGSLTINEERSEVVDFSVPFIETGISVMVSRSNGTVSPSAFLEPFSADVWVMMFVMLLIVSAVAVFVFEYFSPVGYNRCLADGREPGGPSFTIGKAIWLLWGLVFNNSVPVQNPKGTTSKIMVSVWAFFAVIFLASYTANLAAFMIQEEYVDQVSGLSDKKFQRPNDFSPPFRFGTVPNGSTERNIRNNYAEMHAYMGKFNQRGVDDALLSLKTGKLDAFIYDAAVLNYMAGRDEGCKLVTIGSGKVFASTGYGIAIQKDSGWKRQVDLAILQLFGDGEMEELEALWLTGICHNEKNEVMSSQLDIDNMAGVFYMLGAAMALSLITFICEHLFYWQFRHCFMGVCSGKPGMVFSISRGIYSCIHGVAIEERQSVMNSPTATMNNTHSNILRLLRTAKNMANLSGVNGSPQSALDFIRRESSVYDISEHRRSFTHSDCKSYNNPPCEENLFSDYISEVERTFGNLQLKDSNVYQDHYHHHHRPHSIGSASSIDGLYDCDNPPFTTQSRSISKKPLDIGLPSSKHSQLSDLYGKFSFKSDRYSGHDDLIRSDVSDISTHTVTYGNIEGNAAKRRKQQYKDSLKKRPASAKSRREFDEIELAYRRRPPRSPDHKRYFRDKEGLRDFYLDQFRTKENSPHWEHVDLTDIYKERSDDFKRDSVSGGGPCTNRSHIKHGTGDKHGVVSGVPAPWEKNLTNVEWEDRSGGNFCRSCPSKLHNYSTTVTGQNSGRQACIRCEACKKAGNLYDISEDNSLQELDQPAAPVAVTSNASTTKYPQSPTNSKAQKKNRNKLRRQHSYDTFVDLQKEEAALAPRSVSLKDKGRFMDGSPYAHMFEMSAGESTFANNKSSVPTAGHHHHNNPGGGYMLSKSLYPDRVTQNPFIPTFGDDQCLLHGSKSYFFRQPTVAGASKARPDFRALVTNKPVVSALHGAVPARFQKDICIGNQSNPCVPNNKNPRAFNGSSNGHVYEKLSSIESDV
T1 sequence (Q12879 23-1464, species assumed, other chains not shown): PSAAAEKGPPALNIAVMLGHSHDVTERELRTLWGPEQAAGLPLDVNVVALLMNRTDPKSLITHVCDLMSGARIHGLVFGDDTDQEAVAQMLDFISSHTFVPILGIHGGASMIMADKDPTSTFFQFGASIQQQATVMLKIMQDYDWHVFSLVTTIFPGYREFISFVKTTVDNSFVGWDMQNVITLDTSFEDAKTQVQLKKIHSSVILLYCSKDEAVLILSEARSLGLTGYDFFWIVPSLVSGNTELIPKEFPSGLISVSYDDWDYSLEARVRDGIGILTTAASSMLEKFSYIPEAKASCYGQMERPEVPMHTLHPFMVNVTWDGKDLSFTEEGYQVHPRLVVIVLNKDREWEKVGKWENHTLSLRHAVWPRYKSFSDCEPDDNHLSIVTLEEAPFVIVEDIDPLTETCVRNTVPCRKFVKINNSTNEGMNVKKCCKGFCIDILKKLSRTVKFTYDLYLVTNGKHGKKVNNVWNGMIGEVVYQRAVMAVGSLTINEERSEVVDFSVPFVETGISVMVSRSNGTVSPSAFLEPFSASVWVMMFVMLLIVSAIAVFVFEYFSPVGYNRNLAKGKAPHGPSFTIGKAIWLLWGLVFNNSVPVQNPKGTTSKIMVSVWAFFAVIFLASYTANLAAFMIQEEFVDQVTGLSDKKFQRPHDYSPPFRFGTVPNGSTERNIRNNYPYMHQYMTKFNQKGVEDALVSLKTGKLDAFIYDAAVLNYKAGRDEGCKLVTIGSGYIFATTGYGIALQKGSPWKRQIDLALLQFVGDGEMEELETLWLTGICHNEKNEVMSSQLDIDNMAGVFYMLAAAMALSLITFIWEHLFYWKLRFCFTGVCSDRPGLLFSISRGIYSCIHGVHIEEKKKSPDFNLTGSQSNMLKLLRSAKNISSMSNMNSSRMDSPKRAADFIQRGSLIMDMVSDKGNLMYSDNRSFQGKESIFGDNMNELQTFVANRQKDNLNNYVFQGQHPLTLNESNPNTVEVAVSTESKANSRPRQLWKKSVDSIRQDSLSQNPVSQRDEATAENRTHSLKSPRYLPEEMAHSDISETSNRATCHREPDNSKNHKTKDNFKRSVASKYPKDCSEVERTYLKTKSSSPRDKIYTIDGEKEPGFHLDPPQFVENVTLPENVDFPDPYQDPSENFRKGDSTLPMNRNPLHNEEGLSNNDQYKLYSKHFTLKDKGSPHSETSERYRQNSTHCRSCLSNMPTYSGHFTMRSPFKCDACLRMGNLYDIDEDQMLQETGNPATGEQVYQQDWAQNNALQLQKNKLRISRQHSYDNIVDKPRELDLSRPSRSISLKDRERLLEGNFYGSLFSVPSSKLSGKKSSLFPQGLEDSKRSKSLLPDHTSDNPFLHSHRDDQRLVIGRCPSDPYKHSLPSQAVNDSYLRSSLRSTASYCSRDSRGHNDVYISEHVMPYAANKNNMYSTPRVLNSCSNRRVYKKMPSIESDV

| SMILES | EC50 (NMDAR2A) | NMDAR2A A: % maximal [3H]MK-801 binding relative to 1 mM glycine (NMDAR2A) | Microsomal (Rat): percent of compound remaining [2] | Microsomal (Human): percent of compound remaining [3] | Plasma (Rat): percent of compound remaining (Plasma stability (Rat)) | EC50 (NMDAR2B) | NMDAR2B A: % maximal [3H]MK-801 binding relative to 1 mM glycine (NMDAR2B) | Plasma (Human): percent of compound remaining (Plasma stability (Human)) | Emax (NMDAR2A) | Emax (NMDAR2B) | also measured |
| --- | --- | --- | --- | --- | --- | --- | --- | --- | --- | --- | --- |
| NC(=O)CN1CCCC12CC=CCNC2=O (single isomer, unassigned) [GQ-2, 2-(6-oxo-1,7-diazaspiro[4.6]undec-9-en-1-yl)acetamide] | < 1 nM | + (<100%=+) | 102% | 94% | 97% | < 1 nM | + (<100%=+) | 96% |  |  | Tmax ([1]; Sprague-Dawley, po, per os, plasma, read-out: Tmax): 0.25 h; AUC(0-t) ([1]; Sprague-Dawley, plasma, po, per os): 5480 ng·h/mL; bioavailability ([1]; Sprague-Dawley, plasma, po, per os 10 mg/kg): 85%; Cmax ([1]; Sprague-Dawley, plasma, po, per os, plasma, read-out: Cmax): 5390 ng/mL; CSF Cmax ([1]; per os, CSF): 1400.31 ng/mL; Brain Cmax ([1]; per os, brain): 492.96 ng/mL; AUC(0-t) [4]: 1290 ng·h/mL; clearance [4]: 25.7 mL/min/kg; half-life [4]: 1.77 h; Cmax ([4]; read-out: Cmax): 2310 ng/mL; Vd ([4]; read-out: Vss): 1.11 L/kg |
| O=C1N(Cc2ccc(F)cc2)CC=CCC12CCCN2 (single isomer, unassigned) [GK-2, 7-(4-fluorobenzyl)-1,7-diazaspiro[4.6]undec-9-en-6-one] |  | − (−=0) | 46% | 94% | 97% | < 1 nM | + (<100%=+) | 92% |  |  | NMDAR2A B: log EC50 (NMDAR2A): − |
| O=C1NCC=CCC12CCCN2Cc1ccc(F)cc1 (single isomer, unassigned) [GJ-2, 1-(4-fluorobenzyl)-1,7-diazaspiro[4.6]undec-9-en-6-one] | < 1 nM | + (<100%=+) | 3% | 95% | 99% | < 1 nM | + (<100%=+) | 95% |  |  |  |
| O=C1N(Cc2ccccc2)CC=CCC12CCCN2 (single isomer, unassigned) [GS-2, 7-benzyl-1,7-diazaspiro[4.6]undec-9-en-6-one] | ≥ 1 nM | + (<100%=+) | 0% | 90% | 99% | < 1 nM | + (<100%=+) | 98% |  |  |  |
| NC(=O)CN1CCCC12CC=CCNC2=O (single isomer, unassigned) [GQ-1, 2-(6-oxo-1,7-diazaspiro[4.6]undec-9-en-1-yl)acetamide] | < 1 nM |  | 87% | 88% | 98% | ≥ 1 nM |  | 98% | < 100% | > 100% |  |
| O=C1NCC=CCC12CCCN2Cc1ccc(F)cc1 (single isomer, unassigned) [GJ-1, 1-(4-fluorobenzyl)-1,7-diazaspiro[4.6]undec-9-en-6-one] | < 1 nM |  | 11% | 83% | 100% | < 1 nM |  | 105% | < 100% | < 100% |  |
| CC(C)CN1CCCC12CC=CCNC2=O (single isomer, unassigned) [GI-1, 1-isobutyl-1,7-diazaspiro[4.6]undec-9-en-6-one] | < 1 nM |  | 69% | 96% | 102% | < 1 nM |  | 96% | < 100% | < 100% |  |
| O=C1N(Cc2ccccc2)CC=CCC12CCCN2 (single isomer, unassigned) [GS-1, 7-benzyl-1,7-diazaspiro[4.6]undec-9-en-6-one] | < 1 nM |  | 0% | 99% | 95% | < 1 nM |  | 97% | < 100% | < 100% |  |
| CC(C)C(=O)N1CCCC12CC=CCNC2=O (single isomer, unassigned) [GH-1, 1-isobutyryl-1,7-diazaspiro[4.6]undec-9-en-6-one] | < 1 nM |  | 100% | 104% | 102% | < 1 nM |  | 103% and 96% | < 100% | < 100% |  |
| O=C1NCC=CCC12CCCN2Cc1ccccc1 (single isomer, unassigned) [GP-1, 1-benzyl-1,7-diazaspiro[4.6]undec-9-en-6-one] | < 1 nM |  | 2% | 80% | 96% | < 1 nM |  | 98% | < 100% | > 100% |  |
